Experimental data reported in paper PMC7614683, “A small molecule PI3Kα activator for cardioprotection and neuroregeneration” (Nature, 2023).
Like-named read-outs stand apart in the source and are kept apart here.

Legend:
Test in all cases: SelectScreen Z-LYTE kinase activity assay (SI Table 6)
Assay type in all cases: biochemical
[1] = biological target: protein kinases of the Z-LYTE panel (Homo sapiens, UniProt P80192)
In short: (§1)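 Compound 1938 counterscreened at 1 μM against 133 protein and 7 lipid kinases in the SelectScreen panel, using Adapta, LanthaScreen binding and Z-LYTE formats as applicable.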

[2] = biological target: protein kinases of the Z-LYTE panel (Homo sapiens, UniProt P22455)
In short: as §1

[3] = biological target: protein kinases of the Z-LYTE panel (Homo sapiens, UniProt P06213)
In short: as §1

[4] = biological target: protein kinases of the Z-LYTE panel (Homo sapiens, UniProt P42684)
In short: as §1

[5] = biological target: T1, protein kinases of the Z-LYTE panel (Homo sapiens, UniProt O15530); conditions: PDK1, 1000 nM, [ATP] 100 μM
T1 sequence (O15530 1-556): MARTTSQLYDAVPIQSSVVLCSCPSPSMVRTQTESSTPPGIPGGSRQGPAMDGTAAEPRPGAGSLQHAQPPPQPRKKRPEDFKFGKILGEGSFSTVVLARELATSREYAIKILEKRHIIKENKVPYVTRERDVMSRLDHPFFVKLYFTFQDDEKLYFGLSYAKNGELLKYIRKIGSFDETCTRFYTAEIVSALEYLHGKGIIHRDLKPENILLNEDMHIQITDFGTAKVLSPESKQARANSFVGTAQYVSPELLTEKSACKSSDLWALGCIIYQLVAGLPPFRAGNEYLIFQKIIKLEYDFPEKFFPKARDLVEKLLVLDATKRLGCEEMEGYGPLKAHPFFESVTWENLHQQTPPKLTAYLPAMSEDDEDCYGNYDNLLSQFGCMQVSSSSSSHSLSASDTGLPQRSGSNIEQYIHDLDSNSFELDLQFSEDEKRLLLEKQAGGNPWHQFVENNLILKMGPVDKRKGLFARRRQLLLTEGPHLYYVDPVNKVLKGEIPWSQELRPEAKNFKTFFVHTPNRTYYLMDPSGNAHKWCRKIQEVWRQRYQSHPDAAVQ
In short: as §1

[6] = biological target: protein kinases of the Z-LYTE panel (Homo sapiens, UniProt P45983); conditions: MAPK8 (JNK1), 1000 nM, [ATP] 100 μM
In short: as §1

[7] = biological target: protein kinases of the Z-LYTE panel (Homo sapiens, UniProt P15056); conditions: BRAF, 1000 nM, [ATP] 100 μM
In short: as §1

[8] = biological target: protein kinases of the Z-LYTE panel (Homo sapiens, UniProt P07333)
In short: as §1

[9] = biological target: protein kinases of the Z-LYTE panel (Homo sapiens, UniProt Q15303)
In short: as §1

[10] = biological target: protein kinases of the Z-LYTE panel (Homo sapiens, UniProt P19784)
In short: as §1

protein kinases of the Z-LYTE panel (Homo sapiens, UniProt P22455), sequence (P22455 22-802): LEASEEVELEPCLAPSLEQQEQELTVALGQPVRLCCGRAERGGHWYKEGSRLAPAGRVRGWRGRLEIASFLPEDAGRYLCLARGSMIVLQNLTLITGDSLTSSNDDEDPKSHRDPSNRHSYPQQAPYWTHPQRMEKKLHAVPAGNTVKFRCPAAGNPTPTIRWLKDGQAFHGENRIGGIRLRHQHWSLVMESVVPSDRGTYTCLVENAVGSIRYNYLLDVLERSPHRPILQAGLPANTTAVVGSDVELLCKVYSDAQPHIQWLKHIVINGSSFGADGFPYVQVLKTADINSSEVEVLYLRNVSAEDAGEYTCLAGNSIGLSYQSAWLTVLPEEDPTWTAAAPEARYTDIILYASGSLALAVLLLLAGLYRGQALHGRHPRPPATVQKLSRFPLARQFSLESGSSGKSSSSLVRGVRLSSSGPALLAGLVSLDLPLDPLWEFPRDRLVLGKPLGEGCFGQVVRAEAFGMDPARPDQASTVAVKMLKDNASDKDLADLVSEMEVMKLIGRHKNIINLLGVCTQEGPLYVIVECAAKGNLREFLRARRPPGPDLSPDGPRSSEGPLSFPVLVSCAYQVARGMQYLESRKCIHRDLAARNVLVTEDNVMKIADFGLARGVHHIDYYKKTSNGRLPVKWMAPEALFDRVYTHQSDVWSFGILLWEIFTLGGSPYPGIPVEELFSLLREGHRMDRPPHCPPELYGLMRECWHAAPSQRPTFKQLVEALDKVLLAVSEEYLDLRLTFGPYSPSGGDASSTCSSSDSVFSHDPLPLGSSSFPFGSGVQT
protein kinases of the Z-LYTE panel (Homo sapiens, UniProt Q15303), sequence (Q15303 26-1308): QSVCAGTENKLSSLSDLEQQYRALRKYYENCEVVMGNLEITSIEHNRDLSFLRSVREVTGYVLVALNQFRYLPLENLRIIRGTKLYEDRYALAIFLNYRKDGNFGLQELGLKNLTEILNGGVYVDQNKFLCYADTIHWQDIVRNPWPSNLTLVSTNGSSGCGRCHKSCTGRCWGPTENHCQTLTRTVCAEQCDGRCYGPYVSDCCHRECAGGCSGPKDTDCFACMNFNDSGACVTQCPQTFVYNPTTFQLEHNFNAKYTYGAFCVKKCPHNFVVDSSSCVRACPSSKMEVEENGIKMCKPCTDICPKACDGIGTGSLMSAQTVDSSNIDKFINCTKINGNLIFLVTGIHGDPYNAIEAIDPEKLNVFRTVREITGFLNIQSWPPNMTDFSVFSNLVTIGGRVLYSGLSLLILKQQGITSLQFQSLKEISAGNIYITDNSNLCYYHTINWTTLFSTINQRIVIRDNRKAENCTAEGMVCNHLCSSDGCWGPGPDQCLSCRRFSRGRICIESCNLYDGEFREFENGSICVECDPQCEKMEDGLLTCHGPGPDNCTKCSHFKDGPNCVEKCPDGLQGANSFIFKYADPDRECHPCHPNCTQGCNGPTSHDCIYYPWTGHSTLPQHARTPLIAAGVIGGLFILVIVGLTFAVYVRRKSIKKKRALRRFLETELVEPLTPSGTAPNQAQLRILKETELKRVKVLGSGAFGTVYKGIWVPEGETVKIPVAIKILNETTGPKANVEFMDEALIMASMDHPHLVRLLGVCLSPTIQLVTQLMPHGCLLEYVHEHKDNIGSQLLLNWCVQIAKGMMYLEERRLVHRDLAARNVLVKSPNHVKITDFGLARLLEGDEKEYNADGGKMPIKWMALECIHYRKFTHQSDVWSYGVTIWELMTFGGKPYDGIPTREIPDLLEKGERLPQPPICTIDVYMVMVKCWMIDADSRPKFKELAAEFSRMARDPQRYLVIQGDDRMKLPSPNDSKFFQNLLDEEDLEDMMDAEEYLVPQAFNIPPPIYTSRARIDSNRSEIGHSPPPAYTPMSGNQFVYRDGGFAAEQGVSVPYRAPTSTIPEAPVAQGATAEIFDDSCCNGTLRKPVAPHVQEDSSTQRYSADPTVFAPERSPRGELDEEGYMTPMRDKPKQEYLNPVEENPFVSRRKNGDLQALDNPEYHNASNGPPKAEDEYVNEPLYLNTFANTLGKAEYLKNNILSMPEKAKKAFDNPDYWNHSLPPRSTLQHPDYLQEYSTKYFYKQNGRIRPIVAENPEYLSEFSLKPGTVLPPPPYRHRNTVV
protein kinases of the Z-LYTE panel (Homo sapiens, UniProt P45983), sequence (P45983 whole entry): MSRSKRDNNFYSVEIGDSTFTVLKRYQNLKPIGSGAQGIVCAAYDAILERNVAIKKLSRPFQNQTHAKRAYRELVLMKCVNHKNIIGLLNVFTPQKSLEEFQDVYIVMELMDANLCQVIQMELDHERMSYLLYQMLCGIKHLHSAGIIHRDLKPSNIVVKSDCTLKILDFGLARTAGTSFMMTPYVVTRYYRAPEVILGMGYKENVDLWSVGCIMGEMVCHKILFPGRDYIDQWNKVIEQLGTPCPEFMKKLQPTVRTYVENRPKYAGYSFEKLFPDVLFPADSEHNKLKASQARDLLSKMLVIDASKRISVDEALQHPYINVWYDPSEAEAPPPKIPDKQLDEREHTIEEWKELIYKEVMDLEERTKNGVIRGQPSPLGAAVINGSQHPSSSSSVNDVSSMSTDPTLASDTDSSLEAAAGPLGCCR
protein kinases of the Z-LYTE panel (Homo sapiens, UniProt P15056), sequence (P15056 whole entry): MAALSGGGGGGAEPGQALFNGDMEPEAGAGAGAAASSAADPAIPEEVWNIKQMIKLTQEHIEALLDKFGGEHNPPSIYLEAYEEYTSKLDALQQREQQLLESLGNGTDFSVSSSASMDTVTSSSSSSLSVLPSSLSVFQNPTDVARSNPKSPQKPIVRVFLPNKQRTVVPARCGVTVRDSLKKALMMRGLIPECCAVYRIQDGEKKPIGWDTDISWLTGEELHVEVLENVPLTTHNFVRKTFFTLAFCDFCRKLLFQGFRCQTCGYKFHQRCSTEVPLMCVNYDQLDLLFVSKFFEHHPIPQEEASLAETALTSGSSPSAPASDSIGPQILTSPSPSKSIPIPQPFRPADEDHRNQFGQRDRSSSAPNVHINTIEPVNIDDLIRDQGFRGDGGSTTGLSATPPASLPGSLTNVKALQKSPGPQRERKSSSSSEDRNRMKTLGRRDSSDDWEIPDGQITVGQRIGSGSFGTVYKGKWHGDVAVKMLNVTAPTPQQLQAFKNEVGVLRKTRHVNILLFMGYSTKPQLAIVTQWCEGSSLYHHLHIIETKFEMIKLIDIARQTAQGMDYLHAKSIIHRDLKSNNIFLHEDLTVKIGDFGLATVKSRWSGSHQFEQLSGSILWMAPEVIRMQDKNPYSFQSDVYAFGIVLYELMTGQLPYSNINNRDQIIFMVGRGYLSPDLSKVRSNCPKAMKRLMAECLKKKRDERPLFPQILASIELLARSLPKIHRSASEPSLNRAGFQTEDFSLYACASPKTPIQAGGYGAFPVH
protein kinases of the Z-LYTE panel (Homo sapiens, UniProt P80192), sequence (P80192 whole entry): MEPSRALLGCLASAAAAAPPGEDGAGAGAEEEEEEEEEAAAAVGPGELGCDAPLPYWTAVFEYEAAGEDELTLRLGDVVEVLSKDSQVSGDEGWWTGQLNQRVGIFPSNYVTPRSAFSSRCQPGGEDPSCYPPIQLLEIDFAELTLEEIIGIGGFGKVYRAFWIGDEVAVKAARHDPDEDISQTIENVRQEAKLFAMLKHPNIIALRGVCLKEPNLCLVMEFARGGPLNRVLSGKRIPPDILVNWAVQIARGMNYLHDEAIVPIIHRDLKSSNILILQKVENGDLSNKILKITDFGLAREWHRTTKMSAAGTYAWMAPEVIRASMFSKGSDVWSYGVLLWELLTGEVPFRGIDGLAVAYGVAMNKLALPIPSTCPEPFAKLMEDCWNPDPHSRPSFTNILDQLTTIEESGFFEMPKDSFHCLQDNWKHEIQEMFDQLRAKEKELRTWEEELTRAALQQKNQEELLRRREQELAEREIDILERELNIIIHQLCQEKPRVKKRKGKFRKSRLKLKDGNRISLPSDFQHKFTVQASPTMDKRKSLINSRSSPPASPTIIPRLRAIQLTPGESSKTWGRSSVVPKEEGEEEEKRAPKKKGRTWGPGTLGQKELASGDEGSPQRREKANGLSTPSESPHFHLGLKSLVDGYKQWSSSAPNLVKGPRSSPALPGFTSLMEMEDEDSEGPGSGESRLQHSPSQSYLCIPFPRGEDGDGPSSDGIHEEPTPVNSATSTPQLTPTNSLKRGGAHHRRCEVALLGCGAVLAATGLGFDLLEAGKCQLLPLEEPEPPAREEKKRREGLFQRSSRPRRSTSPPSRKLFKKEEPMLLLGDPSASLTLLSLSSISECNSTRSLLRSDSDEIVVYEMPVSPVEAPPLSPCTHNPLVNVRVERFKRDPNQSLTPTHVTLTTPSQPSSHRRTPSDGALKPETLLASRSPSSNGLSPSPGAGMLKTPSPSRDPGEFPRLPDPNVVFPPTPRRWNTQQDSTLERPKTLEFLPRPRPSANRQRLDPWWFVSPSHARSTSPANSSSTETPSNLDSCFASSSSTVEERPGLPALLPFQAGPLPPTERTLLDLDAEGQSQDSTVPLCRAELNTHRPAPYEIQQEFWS
protein kinases of the Z-LYTE panel (Homo sapiens, UniProt P19784), sequence (P19784 whole entry): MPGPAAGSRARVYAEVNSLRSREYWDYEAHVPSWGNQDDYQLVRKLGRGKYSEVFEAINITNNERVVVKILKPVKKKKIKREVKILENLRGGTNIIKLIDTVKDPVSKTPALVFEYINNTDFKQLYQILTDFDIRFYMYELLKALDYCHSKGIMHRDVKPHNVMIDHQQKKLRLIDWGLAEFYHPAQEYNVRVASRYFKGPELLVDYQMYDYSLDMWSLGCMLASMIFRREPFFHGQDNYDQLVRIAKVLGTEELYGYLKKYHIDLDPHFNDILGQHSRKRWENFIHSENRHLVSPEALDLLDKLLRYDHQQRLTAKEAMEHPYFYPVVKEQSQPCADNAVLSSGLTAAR

`CCN1CCN(c2ccc(Nc3cc(Nc4cccc5c4N(C(C)=O)CC5)ccn3)cc2)CC1` [Compound 1938] was tested, and the inhibition at 1 µM ([1]; read-out: % Inhibition Point 1) was 6.46%, the inhibition at 1 µM ([1]; read-out: % Inhibition Point 2) was 4% and the inhibition at 1 µM ([1]; read-out: % Inhibition mean) was 5%. The inhibition at 1 µM ([2]; read-out: % Inhibition Point 1) was 8.55%, the inhibition at 1 µM ([2]; read-out: % Inhibition Point 2) was 8% and the inhibition at 1 µM ([2]; read-out: % Inhibition mean) was 8%. For the same compound, the inhibition at 1 µM ([3]; read-out: % Inhibition Point 1) was 6.51%, the inhibition at 1 µM ([3]; read-out: % Inhibition Point 2) was 5% and the inhibition at 1 µM ([3]; read-out: % Inhibition mean) was 5.64%. The inhibition at 1 µM ([4]; read-out: % Inhibition Point 1) was 22%, the inhibition at 1 µM ([4]; read-out: % Inhibition Point 2) was 20% and the inhibition at 1 µM ([4]; read-out: % Inhibition mean) was 21%. It also gave an inhibition at 1 µM ([5]; read-out: % Inhibition Point 1) of 6%, an inhibition at 1 µM ([5]; read-out: % Inhibition Point 2) of 7% and an inhibition at 1 µM ([5]; read-out: % Inhibition mean) of 6%. It also gave an inhibition at 1 µM ([6]; read-out: % Inhibition Point 1) of 28%, an inhibition at 1 µM ([6]; read-out: % Inhibition Point 2) of 32% and an inhibition at 1 µM ([6]; read-out: % Inhibition mean) of 30%. The inhibition at 1 µM ([7]; read-out: % Inhibition Point 1) was 13%, the inhibition at 1 µM ([7]; read-out: % Inhibition Point 2) was 12% and the inhibition at 1 µM ([7]; read-out: % Inhibition mean) was 13%. The inhibition at 1 µM ([8]; read-out: % Inhibition Point 1) was 15%, the inhibition at 1 µM ([8]; read-out: % Inhibition Point 2) was 15% and the inhibition at 1 µM ([8]; read-out: % Inhibition mean) was 15%. For the same compound, the inhibition at 1 µM ([9]; read-out: % Inhibition Point 1) was 9%, the inhibition at 1 µM ([9]; read-out: % Inhibition Point 2) was 9.48% and the inhibition at 1 µM ([9]; read-out: % Inhibition mean) was 9%. The inhibition at 1 µM ([10]; read-out: % Inhibition Point 1) was 0.87%, the inhibition at 1 µM ([10]; read-out: % Inhibition Point 2) was 2.67% and the inhibition at 1 µM ([10]; read-out: % Inhibition mean) was 1.77%.
